The values below are quoted from earlier work in patent US9017727B2, “Amino acid composition with improved dispersibility” (N.V. Nutricia, priority 2009, dated 2015).

For the data set the following is noted: in water at 20 degrees Celsius.

On to `N[C@@H](CS)C(=O)O` [Cysteine], for which the “Solubility (at 20° C.) (g/100 ml)” value is recorded as 16 g/100 ml. As to `N[C@@H](CSSC[C@H](N)C(=O)O)C(=O)O` [Cystine], the “Solubility (at 20° C.) (g/100 ml)” value was 0.009 g/100 ml.

For the compound `NC(=O)CC[C@H](N)C(=O)O` [Glutamine], the “Solubility (at 20° C.) (g/100 ml)” value is 3.73 g/100 ml. As for `N[C@@H](Cc1c[nH]cn1)C(=O)O` [Histidine], the “Solubility (at 20° C.) (g/100 ml)” value is on record as 3.84 g/100 ml.

For the compound `CC[C@H](C)[C@H](N)C(=O)O` [Isoleucine], the “Solubility (at 20° C.) (g/100 ml)” value was 4.02 g/100 ml. In the case of `C[C@H](N)C(=O)O` [L-Alanine], the “Solubility (at 20° C.) (g/100 ml)” value is 15.8 g/100 ml. For `CC(C)C[C@H](N)C(=O)O` [Leucine], the “Solubility (at 20° C.) (g/100 ml)” value is on record as 2.38 g/100 ml.

As for `CSCC[C@H](N)C(=O)O` [Methionine], the “Solubility (at 20° C.) (g/100 ml)” value is 4.8 g/100 ml. Regarding `CC(=O)N[C@@H](CS)C(=O)O` [N-acetyl cysteine], the “Solubility (at 20° C.) (g/100 ml)” value is given as 17 g/100 ml.

Regarding `N[C@@H](Cc1ccccc1)C(=O)O` [Phenylalanine], the “Solubility (at 20° C.) (g/100 ml)” value is 2.74 g/100 ml. `N[C@@H](Cc1c[nH]c2ccccc12)C(=O)O` [Tryptophan]: the “Solubility (at 20° C.) (g/100 ml)” value was 1.06 g/100 ml. With `CC(C)[C@H](N)C(=O)O` [Valine], the “Solubility (at 20° C.) (g/100 ml)” value is 5.75 g/100 ml. For Cysteine HCL-anhydrous, the “Solubility (at 20° C.) (g/100 ml)” value is recorded as 102 g/100 ml.
